Reference: PMC11249646, “Small-Molecule Disruptors of the Interaction between Calcium- and Integrin-Binding Protein 1 and Integrin αIIbβ3 as Novel Antiplatelet Agents” (ACS Pharmacology & Translational Science, 2024)
Like-named read-outs stand apart in the source and are kept apart here.

Target: T1, CIB1 and αIIb interaction (CIB1-GST : F-αIIb peptide) (Homo sapiens, UniProt Q99828)
T1 construct: made in house; host or cells: BL-21 plus RIL cells (E. coli)
T1 sequence (Q99828 1-191): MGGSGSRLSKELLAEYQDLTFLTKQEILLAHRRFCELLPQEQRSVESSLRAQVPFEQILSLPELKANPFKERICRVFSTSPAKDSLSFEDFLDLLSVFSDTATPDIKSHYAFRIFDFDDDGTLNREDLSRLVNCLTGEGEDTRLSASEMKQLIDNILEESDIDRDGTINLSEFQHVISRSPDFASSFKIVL
Test: FP assay, 1536-well qHTS format (primary and confirmatory screen)
Format: binding
Conditions: for Efficacy (%): negative = inhibition; for IC50: read-out: IC50; for Curve Class: negative sign = inhibitory curve

[1] = qHTS primary screen hits, Table S2
[2] = qHTS primary screen hits, Table S2, several classes where COUNT > 1
[3] = qHTS primary screen of LOPAC/NPACT libraries

| SMILES | Efficacy (%) [1] [%] | IC50 [1] [µM] | Curve Class [1] | other results |
| --- | --- | --- | --- | --- |
| O=C(Nc1ccc(S(=O)(=O)N2CCOCC2)cc1)c1cc(Cl)ccc1NS(=O)(=O)c1ccc(Cl)s1 [NCGC00249417-02] | – | – | – | Efficacy (%) (qHTS FP screen hits, Table S2): -34%; IC50 (qHTS FP screen hits, Table S2): 40.9 µM |
| O=C(O)C(F)(F)F.c1ccc(-n2cc(-c3nnc4n3CCCCC4)cn2)cc1 [NCGC00249642-01] | -39 | 89.1 | -2.4 | – |
| Cc1cc(NS(=O)(=O)c2ccc(Nc3nc(-c4ccc(C)c(C)c4)cs3)cc2)no1.O=C(O)C(F)(F)F [NCGC00249742-01] | -32 | 44.7 | – | Curve Class [2]: -2.4 |
| N#Cc1ccc(NS(=O)(=O)c2ccc(NC(=O)Cc3ccc(Cl)c(Cl)c3)cc2)cc1.O=C(O)C(F)(F)F [NCGC00253445-02] | – | – | – | Efficacy (%) (qHTS FP screen hits, Table S2): -18%; IC50 (qHTS FP screen hits, Table S2): 3.5 µM |
| Cc1cnc(-c2ccccc2C(C)C)nc1NC(C)c1ccc(-c2cccnc2)cc1.O=C(O)C(F)(F)F (stereo not shown) [NCGC00253889-01] | -56 | 56.2 | -2.4 | – |
| CN1C[C@H](C(=O)N[C@]2(C)O[C@@]3(O)[C@@H]4CCCN4C(=O)[C@H](Cc4ccccc4)N3C2=O)C[C@@H]2c3cccc4[nH]cc(c34)C[C@H]21.CS(=O)(=O)O [NCGC00261042-01] | – | – | – | Efficacy (%) [3]: -32%; Curve Class [3]: -2.4; IC50 [3]: 56.2 µM |
| O=c1c(-c2ccc(O)cc2)coc2cc(O)ccc12 [NCGC00261097-01] | – | – | – | Efficacy (%) [3]: -11%; Curve Class [3]: -2.4; IC50 [3]: 56.2 µM |
| O=C1NCc2c1c1c3ccccc3[nH]c1c1[nH]c3ccccc3c21 [NCGC00261167-01] | – | – | – | Efficacy (%) [3]: -24%; Curve Class [3]: -1.4; IC50 [3]: 1.4 µM |
| CCOC(=O)N1CCN([N+]([O-])=NOc2ccc([N+](=O)[O-])cc2[N+](=O)[O-])CC1 [NCGC00261300-01] | -44 | 21.3 | – | – |
| O=c1c(O)c(-c2ccc(O)cc2O)oc2cc(O)cc(O)c12 [NCGC00261461-01] | – | – | – | Efficacy (%) [3]: -26%; Curve Class [3]: -1.2; IC50 [3]: 4 µM |
| CCCCc1ncc(/C=C(\Cc2cccs2)C(=O)O)n1Cc1ccc(C(=O)O)cc1.CS(=O)(=O)O [NCGC00261493-01] | – | – | – | Efficacy (%) [3]: -9%; Curve Class [3]: -1.4; IC50 [3]: 31.6 µM |
| COC(=O)C1=C(C)NC(C)=C(C(=O)OCCN(C)Cc2ccccc2)C1c1cccc([N+](=O)[O-])c1.Cl (stereo not shown) [NCGC00261494-01] | – | – | – | Efficacy (%) [3]: -16%; Curve Class [3]: -1.2; IC50 [3]: 3.5 µM |
| O=C1NC(=O)/C(=C/c2ccc3nccnc3c2)S1 [NCGC00261632-01] | – | – | – | Efficacy (%) [3]: -20%; Curve Class [3]: -1.2; IC50 [3]: 7.9 µM |
| CCN(CC)CCOc1ccc(Nc2ncc3cc(-c4c(Cl)cccc4Cl)c(=O)n(C)c3n2)cc1.Cl.Cl.O [NCGC00261745-01] | -36 | 50.1 | -2.2 | – |
| O=C1c2c(O)cc(O)cc2OC(c2ccc(O)c(O)c2)C1O (stereo not shown) [NCGC00261882-01] | – | – | – | Efficacy (%) [3]: -14%; Curve Class [3]: -1.2; IC50 [3]: 10 µM |
| CN1CCN(CCCN2c3ccccc3Sc3ccc(C(F)(F)F)cc32)CC1.Cl.Cl [NCGC00261917-01] | – | – | – | Efficacy (%) [3]: -35%; Curve Class [3]: -2.4 |
| O=C(O)C(F)(F)F.O=C(c1ccc2c(c1)ncn2-c1ccc(C(F)(F)F)cc1)N1CCCCC1 [NCGC00262230-01] | -43 | 44.7 | -2.2 | – |
| O=C(Cn1nc(-c2ccc(F)cc2)ccc1=O)NCCc1ccccc1.O=C(O)C(F)(F)F [NCGC00262332-01] | -24 | 56.2 | -2.4 | – |
| CC(C)COc1ccc(-c2ccc(=O)n(CC(=O)NCCc3ccccc3)n2)cc1.O=C(O)C(F)(F)F [NCGC00262348-01] | -38 | 56.2 | -2.4 | – |
| O=C(O)C(F)(F)F.O=C(c1cnc(N2CCCCC2)c2ccccc12)N1CCN(c2ccccc2)CC1 [NCGC00262736-01] | -64 | 31.6 | -3 | – |
| Cc1ccc(S(=O)(=O)Nc2ccc(OC(F)(F)F)cc2C(=O)Nc2nc(-c3ccccc3)cs2)cc1.O=C(O)C(F)(F)F [NCGC00262991-01] | -27 | 44.7 | -2.4 | – |
| Cc1ccc(C)n1-c1cnccc1C(=O)O.O=C(O)C(F)(F)F [NCGC00273496-01] | -39 | 44.7 | -2.4 | – |
| Cc1ccc(C)n1-c1ccc(C(=O)O)cc1.O=C(O)C(F)(F)F [NCGC00273552-01] | -38 | 44.7 | – | Curve Class [2]: -2.2 |
| Cc1ccc(S(=O)(=O)Nc2ccc(O)c3ccccc23)c(C)c1.O=C(O)C(F)(F)F [NCGC00273983-01] | -34 | 56.2 | – | Curve Class [2]: -2.4 |
| Cc1ccc(C)n1-c1ccccc1C(=O)O.O=C(O)C(F)(F)F [NCGC00274054-01] | -40 | 50.1 | – | Curve Class [2]: -2.4 |

Now from value to compound, other results behind:

| Efficacy (%) [1] [%] | IC50 [1] [µM] | SMILES | Curve Class [1] | other results |
| --- | --- | --- | --- | --- |
| -48 | 44.7 | CCCc1c(O)c(O)c(C(=O)O)c2cc(Cc3ccccc3)c(C)cc12 [NCGC00249596-02] | – | Curve Class [2]: -2.2 |
| -45 | 44.7 | CC(=O)N1CCN(c2ccc(NC[C@H]3CO[C@](Cn4ccnc4)(c4ccc(Cl)cc4Cl)O3)cc2)CC1 [NCGC00250372-03] | – | Curve Class [2]: -2.4 |
| -30 | 56.2 | COc1ccnc2c1CCCCC2[S+]([O-])c1nc2ccccc2[nH]1 (stereo not shown) [NCGC00253591-01] | – | Curve Class [2]: -2.2 |
| -58 | 44.7 | CN(Cc1cnc2nc(N)nc(N)c2n1)c1ccc(C(=O)N[C@@H](CCC(=O)O)C(=O)O)cc1 [NCGC00260705-01] | -2.2 | – |
| -50 | 22.4 | COc1ccc(Br)cc1S(=O)(=O)NC(=O)/C=C/c1ccccc1Cc1ccc2ccccc2c1 [NCGC00260960-01] | -2.2 | – |
| -52 | 14.1 | O=C1c2ccccc2-c2n[nH]c3cccc1c23 [NCGC00261158-01] | -1.2 | – |
| -33 | 17.8 | O=C1NC(=O)/C(=C/c2ccc3c(c2)OC(F)(F)O3)S1 [NCGC00261190-01] | -1.2 | – |
| -52 | 50.1 | Cl.O=c1cc(N2CCOCC2)oc2c(-c3ccccc3)cccc12 [NCGC00261395-01] | -2.2 | – |
| -44 | 56.2 | O=C(O)CCCC[P+](c1ccccc1)(c1ccccc1)c1ccccc1.[Br-] [NCGC00261975-01] | – | Curve Class [2]: -2.4 |
| -62 | 56.2 | O=Cc1ccc(O)c(O)c1O [NCGC00262933-01] | – | Curve Class [2]: -2.4 |
| -33 | 24.1 | CCCCCCCc1ccc(CCc2cccc(O)c2C(=O)O)cc1 [NCGC00263121-01] | – | Curve Class [2]: -3 |
| -24 | 62.2 | COc1ccccc1-c1cccc(-c2c(O)c3cc(C#N)c(Cl)cc3[nH]c2=O)c1 [NCGC00263230-01] | – | Curve Class [2]: -2.4 |
| -56 | 79.4 | Nc1nc2[nH]cnc2c(=S)[nH]1 [NCGC00263442-01] | -3 | – |
| -27 | 56.2 | CN(C)[C@@H]1C(=O)C(C(=O)NCN2CCCC2)=C(O)[C@@]2(O)C(=O)C3=C(O)c4c(O)cccc4[C@@](C)(O)[C@H]3C[C@@H]12 [NCGC00263906-02] | -2.4 | – |
| -58 | 18.5 | COc1cccc2c1C(=O)c1c(O)c3c(c(O)c1C2=O)C[C@@](O)(C(=O)CO)C[C@@H]3O[C@H]1C[C@H](N)[C@@H](O)[C@H](C)O1 [NCGC00263918-04] | – | – |
| -37 | 53.2 | Nc1nc2c(s1)C(c1ccccc1Cl)CC(O)=N2 (stereo not shown) [NCGC00284018-04] | -2.4 | – |
